Key:
[1] = system: mesenchymal stem cells; assay: GeneChip analysis using mesenchymal stem cells; assay type: cell-based, human; conditions: 1,5-AG reduced from 40 μg/mL to 1 μg/mL or less, 10th day
Description: GeneChip analysis using mesenchymal stem cells was carried out to clarify the function of 1,5-AG in a human. After 1,5-AG was added to a medium to ensure that the final concentration of 1,5-AG became not more than 1 μg/mL or 40 μg/mL and the mesenchymal stem cells were cultured for 10 days, total RNA was collected to carry out GeneChip analysis so as to analyze genes which were expressed and fluctuated according to the difference in the amount of 1,5-AG cyclopaedically. A similar test was carried out 3 times to obtain results which were then summarized and analyzed. The test was carried out by the following method.
Crystalline 1,5-AG was dissolved in pure water to a concentration of 40 mg/mL and filtered with a centrifugal ultrafiltration membrane having a molecular weight cut-off of 3,000 to remove trace macromolecules.
Mesenchymal cells derived from bone marrow (Riken Cell Bank, Resource No. MSC-R46)
DMEM prepared by adding 10% fetal bovine serum (FBS) and a 3 ng/mL fibroblast growth factor (FGF-2) (to be referred to as “growth medium” hereinafter) was used for the preculture of the mesenchymal stem cells. 10% FBS-added DMEM (to be referred to as “test medium” hereinafter) was used in this test. FGF-2 has the function of keeping the undifferentiated state of the mesenchymal stem cells, and the undifferentiated state of the cells was maintained by using the FGF-2-added medium during preculture. In this test, to analyze the differentiation-inducing effect of the sample, a medium containing no FGF-2 was used.
The human mesenchymal cells were initiated in a T-75 flask by using the growth medium and cultured in a CO2 incubator (5% CO2, 37° C., moistening). Medium exchange was carried out every 2 days, and the cells were separated by using 0.25% Trypsin/EDTA when 80% confluence was reached and collected to be used in this test.
The sample was added to a test medium to ensure that the final concentration of 1,5-AG became 40 μg/mL. […]

[2] = system: PSG-1 gene; assay: PSG-1 gene expression in placental trophoblastic cells, real-time RT-PCR; assay type: cell-based, human; conditions: for expression level of PSG-1 gene relative to non-added section: after 72 hours
Description: The influence upon these two genes (PSG-1 and CSH-1) of 1,5-AG was analyzed by a real-time RT-PCR method using placental trophoblastic cells. As a preliminary study, the expression level of PSG-1 was analyzed at three concentrations (1 μg/mL or less, 40 μg/mL and 160 μg/mL of 1,5-AG) and for three sampling times (3, 24 and 72 hours). A test was conducted by the following method.
Human placental villous trophoblastic cells (ScienCell Research Laboratories)
The human placental villous trophoblastic cells were initiated in a T-75 flask by using a trophoblast medium (to be simply referred to as “medium” hereinafter) to be cultured in a CO2 incubator (5% CO2, 37° C., moistening). Medium exchange was carried out every 2 days, the cells were collected when 80% confluence was reached, and cells having a passage number of 2 were used in this test. Stated more specifically, after the cells were washed with D-PBS (−), the cells were separated by using 0.25% trypsin-EDTA, and a medium was added to neutralize trypsin. Then, the supernatant was removed by centrifugation (180 g, 5 minutes), a new medium was added to stir the cells, the number of the cells was counted by using a corpuscle calculating board, and a medium was used to achieve a target concentration (4.0×10^3 cells/100 μL).
The sample was added to mediums to achieve 1,5-AG final concentrations of 40 μg/mL and 160 μg/mL. When the final concentration was not more than 1 μg/mL, 1,5-AG was not added. Stated more specifically, a 1,5-AG aqueous solution having a concentration of 40 mg/mL was added to a test medium in a ratio of 1/1000 or 1/250 to achieve a final concentration of 40 μg/mL or 160 μg/mL, and the 1,5-AG solution was sterilized with a filter to be used in the test. […]
The PCR reaction was carried out under the conditions of 95° C.·30 sec−(95° C.·10 sec−60° C.·30 sec)×45 cycles−95° C.·15 sec−55° C.·15 sec−95° C.·15 sec, and the dissociation curve of the PCR product was obtained after the end of the PCR reaction. The relative expression level was calculated by the ? […]

## OC[C@H]1OC[C@H](O)[C@@H](O)[C@@H]1O [1,5-AG, 1,5-anhydro-D-glucitol]
[1]
  expression of CSH-1: decreases as well
  expression of interleukin 6 signal transducer (IL6ST) gene: reduced most
[1]; rank among genes whose expression was reduced
  expression of pregnancy specific beta-1-glycoprotein 1 (PSG-1) gene: observed after these
[2]; 40 μg/mL 1,5-AG
  expression level of PSG-1 gene relative to non-added section: 1.54 times
[2]; 160 μg/mL 1,5-AG
  expression level of PSG-1 gene relative to non-added section: 1.62 times
[2]; 1,5-AG added sections, 3, 24 and 72 hours
  expression level of PSG-1 gene over treatment time: rose in proportion to the sample treatment time
